In patent US6677429B1, “Echinocandin derivatives, preparation method and application as anti-fungal agents” (Aventis Pharma S.A., priority 1997, dated 2004):

Target: T1, Glucane Synthesis of Candida albicans (Candida albicans, UniProt O13428)
T1 construct: 22.5 µg of membrane proteins are incubated in a mixture of 2 Mm of 14C-UDP glucose; endogenous in cells
Experiment: Inhibition of the Glucane Synthesis of Candida albicans
Assay type: biochemical
Settings: purified Candida albicans membranes, 14C-UDP glucose, 25° C. for 1 hour, radioactivity on filter counted
Description: A—Inhibition of the Glucane Synthesis of Candida albicans.
The membranes of Candida albicans are purified according to the process described by Tang and al Antimicrob. Agents Chemother 35, 99-103, 1991. 22.5 µg of membrane proteins are incubated in a mixture of 2 Mm of 14C-UDP glucose (specific activity=0.34mCi./mmol, 50 μg of α-amylase, 1Mm of dithiotreitol (DTT), 1Mm EDTA, 100 Mm NaF, 7 μM of GTP-γ-S, 1M of sucrose and 5 oMm OF Ttris-HCL (pH 7.8) in a volume of 100 μl. The medium is incubated at 25° C. for 1 hour and the reaction terminated by addition of TCA to a final concentration of 5%. The reaction medium is transferred onto a pre-humidified glass fibre filter. The filter is washed, dried and its radioactivity is counted.
Mulundocandin is used as positive control.
The control of the medium is carried out with the same quantity of DMSO 1%.

T1 sequence (O13428 1-1897): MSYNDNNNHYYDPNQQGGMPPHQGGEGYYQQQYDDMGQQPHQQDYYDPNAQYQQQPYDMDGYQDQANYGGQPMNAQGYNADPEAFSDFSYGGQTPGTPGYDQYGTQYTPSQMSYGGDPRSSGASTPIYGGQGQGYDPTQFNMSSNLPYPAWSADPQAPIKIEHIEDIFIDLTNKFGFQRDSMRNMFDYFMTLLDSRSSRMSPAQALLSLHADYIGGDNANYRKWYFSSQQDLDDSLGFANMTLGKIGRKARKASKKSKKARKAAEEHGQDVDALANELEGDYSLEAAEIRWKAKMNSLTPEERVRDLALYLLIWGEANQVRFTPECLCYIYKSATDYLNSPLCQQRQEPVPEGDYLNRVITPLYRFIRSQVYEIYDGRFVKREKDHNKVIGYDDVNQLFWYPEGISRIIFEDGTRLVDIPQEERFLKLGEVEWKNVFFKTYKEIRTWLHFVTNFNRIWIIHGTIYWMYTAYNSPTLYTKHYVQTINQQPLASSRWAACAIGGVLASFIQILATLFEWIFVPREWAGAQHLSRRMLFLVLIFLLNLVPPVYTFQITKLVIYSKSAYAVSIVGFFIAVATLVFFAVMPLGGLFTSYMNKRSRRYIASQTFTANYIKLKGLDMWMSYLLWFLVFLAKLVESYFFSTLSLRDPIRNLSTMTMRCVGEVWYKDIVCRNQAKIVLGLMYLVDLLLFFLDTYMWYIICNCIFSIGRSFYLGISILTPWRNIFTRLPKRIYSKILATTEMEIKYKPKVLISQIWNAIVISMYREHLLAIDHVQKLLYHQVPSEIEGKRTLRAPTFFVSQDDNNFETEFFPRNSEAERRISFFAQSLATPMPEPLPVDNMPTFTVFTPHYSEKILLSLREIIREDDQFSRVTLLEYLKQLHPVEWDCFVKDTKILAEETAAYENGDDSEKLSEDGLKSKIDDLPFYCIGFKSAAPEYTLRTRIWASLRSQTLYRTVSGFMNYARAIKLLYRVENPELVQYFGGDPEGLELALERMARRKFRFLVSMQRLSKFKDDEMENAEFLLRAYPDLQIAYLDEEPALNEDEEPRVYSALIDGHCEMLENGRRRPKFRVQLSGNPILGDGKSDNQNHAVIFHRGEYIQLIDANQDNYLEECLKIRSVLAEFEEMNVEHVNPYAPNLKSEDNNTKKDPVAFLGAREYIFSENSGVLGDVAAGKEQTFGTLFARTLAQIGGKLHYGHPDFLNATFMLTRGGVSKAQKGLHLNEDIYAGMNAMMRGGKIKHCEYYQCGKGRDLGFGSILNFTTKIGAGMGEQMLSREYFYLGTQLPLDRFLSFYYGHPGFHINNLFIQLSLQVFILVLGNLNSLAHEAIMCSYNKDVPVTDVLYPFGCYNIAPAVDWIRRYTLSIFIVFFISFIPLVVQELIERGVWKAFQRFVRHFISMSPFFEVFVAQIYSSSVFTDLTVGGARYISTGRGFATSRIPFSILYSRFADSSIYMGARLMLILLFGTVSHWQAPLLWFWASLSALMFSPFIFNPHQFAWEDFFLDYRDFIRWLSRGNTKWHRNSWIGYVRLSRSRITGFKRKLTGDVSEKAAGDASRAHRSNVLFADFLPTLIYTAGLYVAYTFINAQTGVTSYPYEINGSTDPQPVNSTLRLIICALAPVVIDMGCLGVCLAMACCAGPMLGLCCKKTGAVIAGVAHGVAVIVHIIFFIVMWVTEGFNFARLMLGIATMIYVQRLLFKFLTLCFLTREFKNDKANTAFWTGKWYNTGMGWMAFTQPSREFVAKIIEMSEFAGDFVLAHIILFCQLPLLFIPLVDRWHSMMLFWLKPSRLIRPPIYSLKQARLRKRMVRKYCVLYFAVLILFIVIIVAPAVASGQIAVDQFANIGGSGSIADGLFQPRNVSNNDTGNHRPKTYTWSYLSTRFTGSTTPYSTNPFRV
T1 sequence (O42825 whole entry partner): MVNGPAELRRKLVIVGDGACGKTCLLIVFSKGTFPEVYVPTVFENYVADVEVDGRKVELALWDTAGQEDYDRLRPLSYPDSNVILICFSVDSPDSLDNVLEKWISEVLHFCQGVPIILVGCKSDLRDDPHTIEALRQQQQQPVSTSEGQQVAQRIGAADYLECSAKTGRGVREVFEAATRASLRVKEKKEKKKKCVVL

Row | Compound | Inhibition of the Glucane Synthesis of Candida albicans (activity in this test)
1 | CCCCCCCCOc1ccc(-c2ccc(C(=O)NC3CC(NCCN)CNC(=O)C4C(O)C(C)CN4C(=O)C(CO)NC(=O)C(C(O)Cc4ccc(O)cc4)NC(=O)C4CC(O)CN4C(=O)C(C(C)O)NC3=O)cc2)cc1.O=C(O)C(F)(F)F (single isomer, unassigned; isomer a) [Example 14, Trifluoroacetate of 1-[4-[(2-Aminoethyl)amino]N2-[[4′-(octyloxy)[1.1′-biphenyl]4-yl]carbonyl]-L-ornithine]4-[4-(4-hydroxyphenyl)-L-threonine]-5-L Serine Echinocandin B (Isomer A)] | good activity
2 | (±) Trifluoroacetate of 1-[4-[(Aminoiminomethyl) hydrazono]-N2-(12-methyl-1-oxotetradecyl)-L-ornithine]4-[4-(4-hydroxyphenyl)-L-threonine]-5-L Serine Echinocandin B [Example 11] | good activity
3 | Trifluoroacetate of 1-[4-[(2-Aminoethyl)amino]-N2-(12-methyl-1-oxotetradecyl)-L-ornithine]4-[4-(4-hydroxyphenyl)-L-threonine]-5-L Serine Echinocandin B (Isomer A and Isomer B) [Example 9] | good activity
